PubChem BioAssay AID179 (DTP/NCI, 2004)
Active and inactive are the calls of the source.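 The calls were made as follows: active = compounds giving half or more protection of infected cells from virus-caused growth loss, again on retest; inactive = the rest.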 Where a SMILES comes first, the peptide text is derived from it. The star is where a group is joined. Cbz = O=C(OCc1ccccc1)*

System: CEM cells HIV-1 protection, formazan growth assay
Test: NCI AIDS Antiviral Assay
Details: for IC50: measured here: growth of uninfected CEM cells
Procedure, shortened: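 CEM (human) cells, HIV-1 infected vs uninfected, 5-point dosing, formazan growth read-out. Retest threshold 50% protection.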

| Structure (SMILES) | EC50 | IC50 | outcome |
| --- | --- | --- | --- |
| CC1(C)CCC2(C)N(c3ccccc3)C(=O)ON12 (stereo not given) | > 200 µM | > 200 µM |  |
| CN(C)c1ccc(/C=C(\C#N)c2ccc(Cl)cc2)c(Cl)c1 | > 50.1 µM | 4.9 µM |  |
| CCOC(=O)CC(=O)C(=O)NNC1=NCCCN1 | > 200 µM | > 200 µM |  |
| c1ccc(SC(CNCCc2ccco2)c2ccc3c(c2)OCO3)cc1 (stereo not given) | > 200 µM | 26.9 µM |  |
| CCOC(=O)/C(=C/c1ccc([N+](=O)[O-])cc1)N(CC)CC | > 324 µM | > 324 µM |  |
| CC(=O)/C(=C/n1ccc(=O)[nH]c1=S)C(=O)Nc1ccc([N+](=O)[O-])cc1 | > 200 µM | 102 µM |  |
| O=C(N/N=C\c1cccs1)c1ccncc1 | > 200 µM | > 200 µM |  |
| CCCOP(=O)(OCCC)OC(C(F)(F)F)C(F)(F)F | > 200 µM | > 200 µM |  |
| S=C(N1CCN(c2ccccc2)CC1)N1CCN(c2ccccc2)CC1 | > 200 µM | > 200 µM |  |
| OCC1OC(n2cnc3c(Cl)nc(Nc4ccccc4)nc32)CC1O (stereo not given) | > 200 µM | 28.2 µM |  |
| CC(C)=CC(=O)N(C)C1C2CN3CCC(O2)C13 (stereo not given) |  |  | inactive |
| C=C1CC23CC4C5C6(C)CC(O)CC57C(C2C(O)C1C(O)C37)N4C6 (stereo not given) |  |  | inactive |
| Cc1ccc(NC2=NCCO2)c2c1CCC2 | > 200 µM | 33.9 µM |  |
| C(=N\OCc1ccccc1)/c1ncccc1C1OCCO1 | > 331 µM | 309 µM |  |
| O=C(O)c1ccccc1/C=N\N(CCO)C1=NCCN1 | > 200 µM | > 200 µM |  |
| COc1ccc(/C=C(\C#N)c2ccc(Cl)cc2)cc1OC | > 200 µM | 174 µM |  |
| C=C1CC2C[C@H](OS(=O)(=O)c3ccc(C)cc3)C(C1)N2C (stereo not given in full) | > 200 µM | > 200 µM |  |
| CN/N=C(\C)CC(=O)Nc1cccc(Cl)c1C | > 14.8 µM | > 14.8 µM |  |
| C=CCn1c(=S)sc2c(C(=O)OCC)c3c(C)cc(C)cn3c2c1=O | > 3.89 µM | > 3.89 µM |  |
| N#Cc1c(NC(=S)Nc2ccc(Cl)cc2)sc2c1CCCC2 | > 200 µM | > 200 µM |  |
| CC(=O)ONC(=O)CSc1nn2cc(-c3ccccc3)nc2s1 | 186 µM | > 200 µM |  |
| CC(C)CCc1n[nH]c(=O)n1/N=C\c1ccccc1 | > 200 µM | 66.1 µM |  |

| Structure (SMILES) | EC50 | IC50 | outcome |
| --- | --- | --- | --- |
| NC(C(=O)OC(=O)c1ccccc1)C(=O)OC(=O)c1ccccc1 | > 200 µM | 97.7 µM |  |
| CCN(CC)C(=S)S[Se](SC(=S)N(CC)CC)(SC(=S)N(CC)CC)SC(=S)N(CC)CC | > 200 µM | 0.794 µM |  |
| COc1cc(/C=C/c2sc3ccccc3[n+]2C)ccc1N(C)C | > 200 µM | 3.24 µM |  |
| COc1ccc2c(c1OC)CN(C)CCc1cc3c(c(OC)c1C(=O)C2)OCO3 |  |  | inactive |
| CC(C)Oc1c(O)c2c3c(oc(=O)n3C=CC2c2ccccc2F)c1OC(C)C (stereo not given) | > 200 µM | 29.5 µM |  |
| CCC1C(C)C=CN1c1nc(N)nc(NS(=O)(=O)c2cc(C)c(Cl)cc2S)n1 (stereo not given) | 129 µM | > 200 µM |  |
| CCOP(=O)(OCC)C(Nc1cccc(F)c1)c1ccccc1 (stereo not given) | > 200 µM | 123 µM |  |
| C=CCCCN(C(=O)c1ccccc1)c1ccc(C(=O)OC)o1 | > 200 µM | 50.1 µM |  |
| C=C1CC(COc2cc(Cl)nc(N)n2)C1 | > 200 µM | 24.5 µM |  |
| CCOC(=O)NC1=C(N2CC2)C(=O)C(NC(=O)OCC)=C(N2CC2)C1=O | > 24.5 µM | 6.46 µM |  |
| N#C/C(=C\c1ccccc1)c1ccc(F)cc1 | > 200 µM | 53.7 µM |  |
| CN(C)P(=S)(CCPc1ccccc1)N(C)C (stereo not given) | > 18.2 µM | > 18.2 µM |  |
| O=[As](O)(O)c1ccc(OCCO)cc1 | > 200 µM | > 200 µM |  |
| CCOC(=O)C(CC(=O)OC)NC(=O)C(CC(=O)OC)NC(=O)C(CC(=O)OC)NC(=O)C(CC(=O)OC)NC(=O)OCc1ccccc1 (stereo not given) (Cbz-D(OMe)D(OMe)D(OMe)D(OMe)-OEt; configuration not given here) | > 200 µM | > 200 µM |  |
| CC(=O)Nc1cc2c(cc1[N+](=O)[O-])-c1cc([N+](=O)[O-])c(NC(C)=O)cc1C2=O | > 200 µM | 25.7 µM |  |
| CC1C(c2ccccc2)OCN1CC=C(c1ccsc1)c1ccsc1 (stereo not given) | > 200 µM | 15.1 µM |  |
| COC(=O)C1(C(=O)OC)Cc2ccc(OC)cc2C2=C1C(=O)c1ccccc1C2=O | > 20 µM | 0.275 µM |  |
| FC(F)C(F)(F)C(F)(F)C(F)(F)C(F)(F)C(F)(F)COC(OCC(F)(F)C(F)(F)C(F)(F)C(F)(F)C(F)(F)C(F)F)OCC(F)(F)C(F)(F)C(F)(F)C(F)(F)C(F)(F)C(F)F | > 200 µM | > 200 µM |  |
| CC(C)S1=C2C(=O)CC(C)(C)CC2=Nc2ccccc21 (stereo not given) | 61.7 µM | > 200 µM |  |
| Cc1cc(S(=O)(=O)O)ccc1N=Nc1ccc(N=Nc2cc(S(=O)(=O)O)c3ccccc3c2O)c(C)c1 | > 100 µM | > 100 µM |  |
| CCCCCCCCCC=C(c1cc(Cl)c(OC)c(C(=O)O)c1)c1cc(Cl)c(OC)c(C(=O)O)c1 | 263 µM | 316 µM |  |
| CCN(CC)/[N+]([O-])=N/OS(=O)(=O)N(C)C | > 200 µM | > 200 µM |  |

| Structure (SMILES) | EC50 | IC50 | outcome |
| --- | --- | --- | --- |
| CCOc1ccccc1N=NC1C(=O)N(C(=O)CC(=O)Nc2ccccc2Cl)N=C1C (stereo not given) | > 200 µM | > 200 µM |  |
| CC(=O)c1ccc2c(c1)N(CCCN1CCN(CCO)CC1)c1ccccc1S2 | > 200 µM | 10.2 µM |  |
| O=[N+]([O-])c1cccnc1SSc1ncccc1[N+](=O)[O-] | > 200 µM | 97.7 µM |  |
| Cc1ccc(S(=O)(=O)N2CC3OC(C)(C)OC3C2CO)cc1 (stereo not given) |  |  | inactive |
| c1ccc2c(CN3CCC(C4CCN(Cc5cccc6ccccc56)CC4)CC3)cccc2c1 | > 200 µM | 0.933 µM |  |
| CC1(C)Nc2cccc3c(N=Nc4ccc(N=Nc5ccccc5)c5ccccc45)ccc(c23)N1 | > 200 µM | 26.3 µM |  |
| CCOC(=O)/C(C#N)=C/c1ccc(Cl)cc1 | > 110 µM | > 110 µM |  |
| CCCCCCCC/C=C\CCCCCCCC(=O)NCCN(CCN)C(=O)CCCCCCC/C=C\CCCCCCCC | > 25.1 µM | > 25.1 µM |  |
| CC1(C)CC(=O)c2c(nc3ccc4ccccc4c3c2-c2ccc(NC(=O)CCCCCCCCC(=O)Nc3ccc(-c4c5c(nc6ccc7ccccc7c46)CC(C)(C)CC5=O)cc3)cc2)C1 | > 100 µM | > 100 µM |  |
| CC(=O)[O-].[Zn].c1ccc(/C(=N\Nc2ccccn2)c2ccccn2)cc1 |  |  | inactive |
| C=CC1(C)CC(=O)C2(O)C(C)(O1)C(OC(C)=O)C(O)C1C(C)(C)CCC(O)C12C (stereo not given) |  |  | inactive |
| COc1cc(/C=C/C(=N\NC(=S)NN)c2sc(NNC(C)=O)nc2C)ccc1O | > 12 µM | > 12 µM |  |
| Cc1nc2ccccc2n1COC(Cn1ccnc1)c1ccc(Cl)cc1Cl (stereo not given) | > 200 µM | 135 µM |  |
| Cc1cc(S(=O)(=O)Nc2nc3cscc3c(=O)n2N)c(S)cc1Cl | 33.9 µM | 132 µM |  |
| CCN=C(Nc1cccc(C2=NCCN2)c1)c1ccc(C(=NCC)Nc2cccc(C3=NCCN3)c2)cc1 | 145 µM | > 200 µM |  |
| Cc1ccc2nccc(/C=C/c3ccc(N(C)C)cc3)c2c1 | > 13.2 µM | 2.45 µM |  |
| CCOC(=O)/C=C(/CN1C(=O)c2ccccc2C1=O)c1ccccc1 |  |  | inactive |
| CC1(C)OC(=O)CC2(C)OC12 (stereo not given) | > 200 µM | > 200 µM |  |
| COc1cc(O)c2c(=O)c3c(OC)c(O)ccc3oc2c1 | > 200 µM | 56.2 µM |  |
| O=c1c2ccccc2nc(-c2cccc(Cl)c2)n1NC1OC(CO)C(O)C(O)C1O (stereo not given) |  |  | inactive |
| COc1ccc2nc(C(=O)c3ccccc3)c(C)cc2c1 | > 25.7 µM | 17.4 µM |  |
| CN1c2ccccc2N(C)P1(=S)c1ccccc1 | > 200 µM | 26.9 µM |  |

| Structure (SMILES) | EC50 | IC50 | outcome |
| --- | --- | --- | --- |
| Cc1ccc(C2=C/C(=C/c3ccc(N(CCC#N)CCC#N)cc3)C(=O)O2)cc1 | > 200 µM | > 200 µM |  |
| NCCS/C=C\C(=O)O | > 1700 µM | > 1700 µM |  |
| NS(=O)(=O)c1ccc(N=Cc2cc(Cl)cc(Cl)c2O)cc1 | > 200 µM | 16.6 µM |  |
| COc1ccc2ccc3c(CCN(C)C#N)cc4c(c3c2c1OC(C)=O)OCO4 | > 34.7 µM | > 34.7 µM |  |
| COc1cc2c(cc1OC)CN1CCCc3cc(OC)c(OC)cc3C1C2 (stereo not given) | > 200 µM | 32.4 µM |  |
| O=C(NCc1ccccc1)c1n[nH][nH]c1=O | > 200 µM | > 200 µM |  |
| C=CC(C)C1(CCCOCc2ccccc2)C(=S)N2CCC3(CC24CCCC14)OCCO3 (stereo not given) |  |  | inactive |
| CCCCN(CCCC)C(=O)C(=O)C(C(=O)C(=O)OC)c1nc2ccccc2o1 (stereo not given) | > 33.9 µM | > 33.9 µM |  |
| O=c1[nH][nH]c(=O)c2c1[nH]c(=S)n2-c1ccccc1 | > 200 µM | > 200 µM |  |
| CCOC(=O)C(C)(c1c[nH]c2ccccc12)c1c[nH]c2ccccc12 | > 200 µM | 19.5 µM |  |
| CCCCOB(OCCCC)OCCCC | > 200 µM | > 200 µM |  |
| C=C1CC(c2ccc(OCCCN3C(=O)c4ccccc4C3=O)cc2)OC1=O (stereo not given) | > 20 µM | 1.7 µM |  |
| Cc1ccc(N2C(=O)C(Cl)=C(Cl)C2=O)cc1 |  |  | inactive |
| C[CH2][Sn]([Cl])([Cl])[CH2]C |  |  | inactive |
| COC(=O)[C@H]1COC(=S)N1C(=O)[C@@H](C)[C@H](O)C(C)C | > 631 µM | > 631 µM |  |
| O=C(NN(C(=O)c1ccc([N+](=O)[O-])cc1)c1ccccc1)c1ccc([N+](=O)[O-])cc1 | > 200 µM | 36.3 µM |  |
| O=C(CNc1ccc([N+](=O)[O-])cc1)Nn1c(-c2ccccc2)nc2ccccc2c1=O | > 200 µM | 4.17 µM |  |
| COc1ccc(C2=Nc3ccccc3N=C(SC)C2)cc1 | 2.4 µM | 17.8 µM |  |
| COc1ccc(C2=NN(c3nsc4ccccc34)C(=O)CC2)cc1 | > 40.7 µM | > 40.7 µM |  |
| O=C1c2ccccc2-c2nc3ccccc3nc21 | > 6.17 µM | > 6.17 µM |  |
| Cc1ccc(C(=O)c2ccccc2C(=O)O)c(C)c1 | > 200 µM | > 200 µM |  |
| O=S1c2ccccc2NC(c2ccc3ccccc3c2)CC1c1ccccc1 (stereo not given) | > 7.08 µM | > 7.08 µM |  |
